Patent US9586994B2, “CD44V6-derived peptides for treating breast cancer” (KARLSRUHER INSTITUT FÜR TECHNOLOGIE, priority 2012, dated 2017)
“Also recorded” adds a separate entry of the source. Like-named read-outs stand apart in the source and are kept apart here. No end group written: not given here.

Experiments:
[1] = test system: Met; settings: N and E of the pentapeptide changed to A, Matzke et al., Cancer Res. (2005), cited from earlier work
[2] = test system: L3.6pl cells; assay: Human orthotopic pancreatic cancer model, L3.6pl cells in nude mice, treatment from day 7; assay type: in vivo, mouse; settings: nude mice, orthotopic L3.6pl; 20 μg i.p. three times per week; listed as rat-specific peptide
Procedure: In the case of the human orthotopic model, L3.6pl pancreatic carcinoma cells (passage 24-26) were suspended in Hank's balanced salt solution (Invitrogen, Karlsruhe, Germany) after trypsinization. The cells were injected orthotopically in the pancreas of male nude mice as described (Bruns C J et al. (1999) Neoplasia 1(1):50-62). Two groups of 15 mice each were injected i.p. 7 days later with either the human v6 peptide respectively rat control peptide (20 μg). For all experiments described and depicted herein either the rat 14mer control peptide or the human 14mer peptide were used. All experiments were then repeated with the rat 5mer control peptide or the human 5mer peptide (N-R-W-H-E, SEQ ID NO: 2). […] The injection was repeated three times per week for 21 days. Two days after the last treatment the animals were killed.
7 μm thick paraffin sections were deparaffinized and rehydrated. For P-Met staining antigen unmasking was achieved by boiling the slides in 1 mM EDTA pH 8.0 followed by incubation for 15 minutes at a sub-boiling temperature, for CD31 staining the sections were treated with Proteinase K (8 μg/ml) for […] at 37° C. For immunofluorescence staining of P-Met, unspecific binding was blocked with 5% goat serum (DAKO, Glostrup, Denmark) (diluted in 1×PBS/0.3% Triton X-100) for 60 minutes. In the case of immunohistochemistry, endogenous peroxidases were at first blocked with 3% H2O2 in PBS followed by incubation with biotin blocking system (Dako, Glostrup, Denmark) and then unspecific binding was inhibited by incubation with 5% FCS in PBS was used for blocking. The sections were incubated with the P-Met antibody (D26, dilution 1:50 in 1×PBS/1% BSA/0.3% Triton X-100), Met antibody (C-28, dilution 1:50), GFP antibody (sc-101525, dilution 1:50) or CD31 antibody (5 μg/ml) over night or VFF18 (5 μg/ml) o/n at 4° C. After washing in PBS the sections were incubated with Alexa Fluor R 546 goat anti-rabbit (in case of immunofluorescence P-Met and Met staining, dilution 1:500) or a biotinylated secondary antibody (for immunohistochemical stainings rabbit anti-rat antibody for VFF18 and CD31, goat anti-rabbit for P-Met, cleaved Caspase-3 and cleaved Caspase-8 and rabbit anti-mouse for GFP, dilution 1:500) for 45 minutes. For DAB staining the sections were treated with a streptavidin-peroxidase conjugate (Dako, Glostrup, Denmark) and developed with DAB (3,3′-diaminobenzidine) substrate system (3,3′-diaminobenzidine; Biozol, Eching, Germany) For immunofluorescence DAPI was used for nuclear staining.
To test the effect of the peptide on tumor growth and metastasis formation the L3.6pl cells were orthotopically injected into the pancreas of immunosuppressed mice (NCI-nu). […] The primary tumor expresses a high amount of CD44v6 (FIG. 19B). […] Indeed, human HGF in a concentration of 3375 pg/ml was detected in the supernatant (see Material and Methods) after 5 days of culture (data not shown).

[3] = test system: BSp73ASs6 cells; assay: Rat syngeneic model, subcutaneous BSp73ASs6 tumors, treatment from one week (metastasis formation); assay type: in vivo; settings: rats, s.c. BSp73ASs6
Procedure: In the case of the rat syngeneic model, 1×10^6 pancreatic cells (BSp73AS and its transfectants) were subcutaneously injected into the right posterior flank of the animals. Tumors developed for four weeks. During this time period animals injected with BSp73ASs6 cells expressing Met-shRNA or control-shRNA received doxycycline in the drinking water. At the end of the experiment, primary tumors were isolated. Lungs and axillary lymph nodes were analyzed. The tissues were incubated for 24 h in a zinc-fixative (0.5 g calcium acetate, 5.0 g zinc acetate, 5.0 g zinc chloride, in 1 L 0.1 M Tris pH 7.4) and embedded in paraffin for further analysis. In case of peptide or antibody treatment tumors developed for one week before the first treatment. Where indicated, animals received 200 μg of peptide or antibody per injection three times per week for four weeks. Tumor growth was monitored weekly using a caliper Animals were killed at day 28 or 30 after start of the treatment.
For histomorphological analysis paraffin-embedded sections of lungs were stained with hematoxylin and eosin and periodic acid-Schiff (H&E or PAS). Serial sections of the whole tissue blocks were examined by analyzing slices every 20 μm; in each slice, the presence and the extension of the metastatic deposit was assessed, according to the procedure routinely used by pathologists to evaluate the presence of micrometastases.
Rat peptides had the sequences KEKWFENEWQGKNP (SEQ ID NO: 10) and NEWQG (SEQ ID NO: 11). BSp73ASs6 cells were subcutaneously injected into syngeneic rats and rat CD44v6 peptides of SEQ ID NO: 10 or SEQ ID NO: 11 (or mouse control peptides) or the CD44v6 antibody (or IgGs as a control) were injected intra-tumoral or intravenously three times a week. […] This is compatible with the fact that also BSp73AS cells or BSp73ASv1-10Δv6 cells can induce the formation of primary tumors similarly to the v6 transfectants.

[4] = test system: CD44v6; assay: HGF-induced activation of Met and ERK in L3.6pl cells (Western blot); assay type: cell-based, human; settings: peptide before induction with 10 ng/ml HGF
Procedure: Serum-starved cells (24 hours) were induced with the growth factor HGF (10 ng/mL) at 37° C. for 5 minutes. Where indicated, the cells were treated with peptides (100 ng/ml) prior to induction at 37° C. for 10 minutes (100 ng/mL CD44v6 peptide or control peptide). Following the induction with HGF, cells were washed with ice-cold phosphate-buffered saline (PBS). To detect activated Met and ERK, cells were lysed in sodium dodecyl sulfate (SDS)—sample buffer containing 100 mM dithiothreitol (DTT), boiled and subjected to western blot analysis using antibodies against phospho-Met and ERK. The loading controls were performed on the same blot after stripping (62.5 mM Tris, pH 6.8, 2% SDS, 0.8% DTT) by probing with the Met respectively Erk antibody. Blots were stained using the enhanced chemiluminescence system (Thermo Fisher Scientific, Schwerte, Germany). Bands in western blot analysis were quantified with the program Image J (National Institutes of Health).
To expand the studies to human pancreatic tumors, the highly metastatic human pancreatic carcinoma cells L3.6pl (Bruns, et al. Neoplasia (1999), 1(1):50-62) were investigated. These cells originate from the […] cells that have been passaged several times in the liver and the pancreas, a step that rendered them more and more metastatic. It was confirmed that Met is dependent on CD44v6 for its activation and signaling in these cells (FIG. 19A). The L3.6pl cells were treated with HGF in the presence or absence of a human v6 peptide of SEQ ID NO: 2 or SEQ ID NO:6 and Met activation and downstream signaling to ERK was measured. Phosphorylation of both Met and ERK was inhibited by the human v6 peptide. Treatment with a corresponding rat v6 peptide (ctrl peptide, SEQ ID NO: 10 or 11) had no influence on receptor activation and signal transduction (FIG. 19A).
The contribution of CD44v6 to Met signaling in the human epithelial pancreatic cancer cells L3.6pl (derived from Colo 357), the cervix carcinoma cells HeLa and the colon cancer cells HT29 were analysed using the CD44v6 peptide (v6 14mer; v6 5mer tested as well, data not shown).

[5] = test system: BSp73ASs6 tumors; settings: rat
Source text: To avoid autofluorescence of fur, rats were shaved around the tumor prior to imaging. Subsequently, animals were anesthetized using 2% isoflurane and gently fixed on the devices' heated plate for the entire time of data acquisition. To reduce fluorescence background, rats were fed with chlorophyll-reduced food (Provimi Kliba AG, Kaiseraugst, Switzerland) for one week prior NIRF imaging. All in vivo analyses were preceded by native scans of animals without any injection of the fluorescent probe. For in vivo analysis, rats were injected with 200 μg DY681-labeled rat v6 11 mer peptide or the human v6 11 mer peptide via the tail vein. Controls were injected with the equal amount of DY681-labeled mouse v6 11mer peptide. […] All peptides were labeled with the fluorescent dye DY681. Data were acquired at the indicated time after injection of the peptides. […]
DY681 fluorescence was measured using excitation at 670 nm in combination with a 700 nm long-pass emission filter. […] Data sets were analyzed with OptiView (ART).
For in vivo experiments, BSp73ASs6 cells were injected subcutaneously into syngeneic rats. […] The accumulation of the fluorescence was measured in the tumor region by Optix MX2 at the indicated time points. […] Then, in vivo binding kinetics of the Dy681-labeled v6 peptides to the subcutaneous tumors were determined. […]

[6] = test system: murine 4T1 cells; assay: Syngeneic orthotopic 4T1 mammary carcinoma model in BALB/c mice; assay type: in vivo, mouse
Procedure: FIG. 27: Treatment with the v6 14mer reduces growth of the primary tumor and macroscopic metastases formation in the lung. 1×10^6 murine 4T1 cells per mouse were diluted in 50 μl RPMI plus 50 μl Matrigel and injected into the […] mammary fat pad of 10 female BALB/c mice. One week after the injection, the mice were either injected intraperitoneally with 20 μg of the murine v6 14mer dissolved in 100 μl PBS or with 20 μg of control peptide (rat v6 14mer) dissolved in 100 μl PBS. The injection was performed 3 times per week for two weeks. After 2 weeks the mice were sacrificed and the primary tumors and the lungs were extracted. A: Overall reduction of the tumor volume in the v6 peptide treated group B: Immunofluorescent staining for the endothelial marker CD34 to monitor vascularization of the primary tumor. Graphic representation of the reduction of the total vessel area. C: The v6 peptides led to a reduction in macroscopic lung metastasis. The black arrows mark examples for metastases. The scale bar corresponds to a size of 1 cm. Statistical evaluation of the average number of lung metastases. Significance was calculated using Student's t test: p*<0.01; **p<0.005. Each group consisted of 5 animals.
All animals were handled according to German regulations for animal experimentation. The animal experiments were approved by the Regierungspräsidium Karlsruhe (35-9185.81/G-83/04). All mice were obtained from Harlan. 1×10^6 murine 4T1 cells (diluted in either […] of control peptide or […] of CD44v6 peptide (peptides of SEQ ID No.: 6 were tested) in PBS) were orthotopically injected into the mammary fat pad of female BALB/c mice. In succession, 5 of the mice were injected intraperitoneally with a CD44v6-peptide (20 μg per mouse) (peptides of SEQ ID No.: 6 were tested) and 5 of the mice were injected with an unspecific control peptide (20 μg per mouse) three times a week. After four weeks, the mice were sacrificed and the tumors as well as the lung and lymph nodes of the animals were extracted. These organs were then fixed in 4% Formalin, processed and embedded in paraffin. […]

A-R-W-H-A (ARWHA) [SEQ ID NO: 3]
CD44v6 mediated activation of Met [1]: still active in inhibiting CD44v6 mediated activation of Met | CD44v6 mediated activation of Met ([1]; listed as SEQ ID NO:3): capable of abrogating Met activation

KEKWFENEWQGKNP [SEQ ID NO: 10, rat CD44v6 14mer; control peptide in human models]
Metastasis formation (liver) [2]: neither influence on metastasis formation; also recorded: no influence on metastasis formation | Outgrowth of the primary tumor in the pancreas [2]: no influence on metastasis formation or on growth of the primary tumor | Metastasis (axillary lymph nodes and lungs) ([3]; 200 μg per injection i.t. or i.v., three times a week, four weeks, start after one week): completely inhibited metastasis | Metastasis and micro-metastasis in lung sections (PAS and H&E histology) ([3]; 200 μg three times a week): no metastasis nor micro-metastasis could be detected | Outgrowth of primary tumors ([3]; treatment for 28 days): not influenced | HGF-induced phosphorylation/activation of ERK [4]: no influence | HGF-induced phosphorylation/activation of Met [4]: no influence

WFQNGWQGKNP (also: DY681 fluorescent dye label) [mv6 pep Dy681, reference compound]
Ex vivo fluorescence in excised tumors and lungs [5]: not in tumors and lungs

v6 14mer: murine v6 14mer per FIG. 27 legend; no sequence printed; b173 and b212 say SEQ ID NO: 6 (KEQWFGNRWHEGYR)
Total number of blood vessels in the primary tumor (anti-CD34 staining) ([6]; BALB/c mice, 4T1, 20 μg i.p. 3 times per week for two weeks): significantly reduced | Size of the primary tumor ([6]; BALB/c mice, 4T1 in mammary fat pad, 20 μg i.p. 3 times per week for two weeks, 5 animals per group): significant decrease of tumor size | Macroscopic lung metastases per animal ([6]; macroscopic analysis of the lungs, 5 animals per group): three animals showed no macroscopic metastases at all, whereas two animals had only one metastase
